Measurements as given in patent US8759318B2, “Phosphoramidate derivatives of guanosine nucleoside compounds for treatment of viral infections” (Inhibitex, Inc., priority 2009, dated 2014).

What was measured:
in vitro = settings: human
[1] = test system: HCV replicon (Genotype 1b); test: Luciferase genotype 1b replicon potency assay; settings: Hepatitis C virus, GETYPE1B, read-out: IC50 μM, HCV genotype 1b luciferase replicon, Renilla luciferase reporter

SMILES	CC50 (in vitro)	IC50 [1]
COC(=O)[C@@H](C)c1ccc2cc(OP(=O)(N[C@H](C(=O)OCC(C)(C)C)C(C)C)OC[C@H]3OC(n4cnc5c(OC)nc(N)nc54)[C@](C)(O)[C@@H]3O)ccc2c1 (stereo partly drawn) [Example 48, (2S)-neopentyl 2-((((2R,3R,4R)-5-(2-amino-6-methoxy-9H-purin-9-yl)-3,4-dihydroxy-4-methyltetrahydrofuran-2-yl)methoxy) (6-((S)-1-methoxy-1-oxopropan-2-yl)naphthalen-2-yloxy)phosphorylamino)-3-methylbutanoate]	29 µM	0.21 µM
COc1nc(N)nc2c1ncn2C1O[C@H](COP(=O)(N[C@H](C(=O)OCc2ccc(F)cc2F)C(C)C)Oc2cccc3ncccc23)[C@@H](O)[C@@]1(C)O (stereo partly drawn) [Example 49, (2S)-2,4-difluorobenzyl 2-((((2R,3R,4R)-5-(2-amino-6-methoxy-9H-purin-9-yl)-3,4-dihydroxy-4-methyltetrahydrofuran-2-yl)methoxy)(quinolin-5-yloxy)phosphorylamino)-3-methylbutanoate]	> 100 µM	0.17 µM
COc1nc(N)nc2c1ncn2C1O[C@H](COP(=O)(N[C@H](C(=O)OCC(C)(C)C)C(C)C)Oc2cccc3ncccc23)[C@@H](O)[C@@]1(C)O (stereo partly drawn) [Example 50, (2S)-neopentyl 2-((((2R,3R,4R)-5-(2-amino-6-methoxy-9H-purin-9-yl)-3,4-dihydroxy-4-methyltetrahydrofuran-2-yl)methoxy)(quinolin-5-yloxy)phosphorylamino)-3-methylbutanoate]	> 100 µM	0.55 µM
COc1nc(N)nc2c1ncn2C1O[C@H](COP(=O)(N[C@H](C(=O)OCc2ccc(F)cc2F)C(C)C)Oc2ccc3ncccc3c2)[C@@H](O)[C@@]1(C)O (stereo partly drawn) [Example 51, (2S)-2,4-difluorobenzyl 2-((((2R,3R,4R)-5-(2-amino-6-methoxy-9H-purin-9-yl)-3,4-dihydroxy-4-methyltetrahydrofuran-2-yl)methoxy)(quinolin-6-yloxy)phosphorylamino)-3-methylbutanoate]	> 100 µM	0.11 µM
COc1nc(N)nc2c1ncn2C1O[C@H](COP(=O)(N[C@H](C(=O)OCC(C)(C)C)C(C)C)Oc2ccc3ncccc3c2)[C@@H](O)[C@@]1(C)O (stereo partly drawn) [Example 52, (2S)-neopentyl 2-((((2R,3R,4R)-5-(2-amino-6-methoxy-9H-purin-9-yl)-3,4-dihydroxy-4-methyltetrahydrofuran-2-yl)methoxy)(quinolin-6-yloxy)phosphorylamino)-3-methylbutanoate]	> 100 µM	0.19 µM
COc1nc(N)nc2c1ncn2C1O[C@H](COP(=O)(N[C@H](C(=O)OCC(C)(C)C)C(C)C)Oc2cccc3cccnc23)[C@@H](O)[C@@]1(C)O (stereo partly drawn) [Example 53, (2S)-neopentyl 2-((((2R,3R,4R)-5-(2-amino-6-methoxy-9H-purin-9-yl)-3,4-dihydroxy-4-methyltetrahydrofuran-2-yl)methoxy)(quinolin-8-yloxy)phosphorylamino)-3-methylbutanoate]	> 100 µM	0.88 µM
COc1nc(N)nc2c1ncn2C1O[C@H](COP(=O)(N[C@H](C(=O)OCC(C)(C)C)C(C)C)Oc2cc(C(C)(C)C)cc3ccccc23)[C@@H](O)[C@@]1(C)O (stereo partly drawn) [Example 55]	13 µM	2.1 µM
COc1nc(N)nc2c1ncn2C1O[C@H](COP(=O)(N[C@H](C(=O)OCC(C)(C)C)C(C)C)Oc2cc(C(C)(C)C)cc3ccc(C(C)(C)C)cc23)[C@@H](O)[C@@]1(C)O (stereo partly drawn) [Example 56]	13 µM	2.1 µM
COc1nc(N)nc2c1ncn2C1O[C@H](COP(=O)(N[C@H](C)C(=O)OCC(C)(C)C)Oc2cccc3ccccc23)[C@@H](O)[C@@]1(C)O (stereo partly drawn) [Example 57]	51 µM	0.24 µM
